Measured values as given in US20160143884A1, “USE OF TETRAHYDROINDAZOLYLBENZAMIDE AND TETRAHYDROINDOLYLBENZAMIDE DERIVATIVES FOR THE TREATMENT OF HUMAN IMMUNODEFICIENCY VIRUS (HIV) AND ACQUIRED IMMUNE DEFICIENCY SYNDROME (AIDS)” (Esanex, Inc., priority 2014, published 2016).

How the values were obtained:
[1] = system: VSVg-pseudotyped NL4-3.Luc.E-R- virus; experiment: microbe, parasite or virus in culture; format: cell-based, HIV-1; settings: Human immunodeficiency virus 1, NL43, SUP-T1, read-out: EC50 of inhibition of HIV replication
SIVmac251 virus = experiment: SIV inhibition in NHP PBMC, p27 antigen capture assay; format: cell-based; settings: 0.0005 to 50 μM
Method: Non-human primate (NHP) cells were activated in IL-2 growth medium (GM) containing PHA-P at a concentration of 10 μg/ml for 24 hrs. The next day cells were washed and re-suspended in fresh IL-2 GM. Compound 9 was serially diluted at concentrations ranging from 0.0005 to 50 μM in a 96 well u-bottom plate containing IL-2 GM. Activated cells were then added to the wells of the plate. SIVmac251 virus, diluted 1:25 in IL-2 GM, was subsequently added to the appropriate wells containing the compounds of interest and the cells except for controls. This virus represents the same virus preparation utilized for infection of the animals. The plate was then incubated overnight and, after extensive washing the next day, the plate was then placed back in the incubator at 37° C., 5% CO2.
On day 4-5, of the assay, supernatants were harvested and a SIV p27 antigen capture assay was used to detect SIV p27 in the supernatant. […] The percentage of inhibition in each experiment is reported in FIGS. 3b and 3c for test 1 and 2, respectively.

[2] = system: single cycle HIV in SupT1 cells
Method: HIV-integration was evaluated in a cell based assay with ALU-PCR read out. Using single cycle virus (Env-deficient, containing Luc, pseudotyped with VSV-g), SupT1 cells were infected for 36 hours. Cells were treated with DMSO, Raltegravir (integrase inhibitor), 500 nM Compound 9, or Nelfinavir (protease inhibitor). It was expected that Raltegravir should affect both Luc and ALU-PCR data and Nelfinavir should not (downstream of both). Cells were split in half-one part for Luc-assays, and one part for ALU-PCR.

JLAT clones (A2; 9.2) = experiment: HIV-1 reactivation and inhibition of reactivation in JLAT clones (GFP, flow cytometry); format: cell-based, human
Method: Two JLAT clones (A2; 9.2) were incubated for 24 hours with tumor necrosis factor alpha (TNFα), phorbol myristate 13-acetate (PMA), Compound 9 (9, various doses), and all combinations of these three compounds. JLAT cells make GFP when HIV is reactivated from latency.
J-Lat cells (JLAT 9.2, 5×10^5/mL) were cultured in Gibco RPMI-1640 media, supplemented with 10% (vol/vol) FCS and 5% (vol/vol) penicillin streptomycin at 37° C., 5% CO2 under sterile conditions. For HIV-1 reactivation experiments, 10^6 cells/mL were mixed with TPA (10 nM final, unless otherwise indicated) or TNFα (5 ng/mL final) and immediately 150 μL of cell mix was dispensed into 96-well plates. Compound 9 was added to the 96-well plates in serial dilutions. Cells were incubated for 24 h before analysis by flow cytometry.
JLAT (A2) cells were incubated with the following treatments: media (negative control), DMSO (SNX control), 1 ng/mL TNFα, 2 μM PMA, or these agonists+1, 0.1, 0.01, or 0.001 Compound 9 (left to right in the attached figure). 20 h post incubation, the cells were washed, fixed, and run on a flow cytometer. Media, DMSO, TNFα, and PMA were each run in quadruplicate; all other reactions were run in singlet. >10,000 events (cells) were counted for each treatment. Data are expressed as % GFP+cells (negative cells set by gating on media alone control).

[3] = system: 2LTR non-integrated circular form of the HIV genome; experiment: HIV integration in 2LTR assay (real-time PCR); format: cell-based, HIV-1
[4] = Cell viability (CellTiter 96 AQueous One) in HepG2 2.2.15; format: cell-based; settings: human, HepG2-2.2.15 cells, read-out: Cytotoxicity TC50
Method: The anti-HBV assay employed real-time qPCR (TaqMan) to directly measure extracellular HBV DNA copy number. HepG2-2.2.15 cells were plated in 96-well microtiter plates. Only the interior wells were utilized to reduce “edge effects” observed during cell culture; the exterior wells were filled with complete medium to help minimize sample evaporation. After 16-24 hours the confluent monolayer of HepG2-2.2.15 cells was washed and the medium replaced with complete medium containing various concentrations of a test compound in triplicate. 3TC was used as positive control, while media alone was added to cells as negative control (virus control, VC). Three days later the culture medium was replaced with fresh medium containing the appropriately diluted drug. Six days following the initial administration of the test compound, the cell culture supernatant collected, treated with pronase and then used in a real-time quantitative TaqMan qPCR assay. The PCR-amplified HBV DNA was detected in real-time by monitoring increases in fluorescence signals that result from the exonucleolytic degradation of a quenched fluorescent probe molecule that hybridizes to the amplified HBV DNA. […] Antiviral activity was calculated from the reduction in HBV DNA levels (IC50). […] The therapeutic index (TI) was calculated as TC50/IC50.

Hepatitis B Virus (HBV) = experiment: Anti-HBV assay, real-time qPCR of extracellular HBV DNA in HepG2 2.2.15; format: cell-based
Method: The anti-HBV assay employed real-time qPCR (TaqMan) to directly measure extracellular HBV DNA copy number. HepG2-2.2.15 cells were plated in 96-well microtiter plates. Only the interior wells were utilized to reduce “edge effects” observed during cell culture; the exterior wells were filled with complete medium to help minimize sample evaporation. After 16-24 hours the confluent monolayer of HepG2-2.2.15 cells was washed and the medium replaced with complete medium containing various concentrations of a test compound in triplicate. 3TC was used as positive control, while media alone was added to cells as negative control (virus control, VC). Three days later the culture medium was replaced with fresh medium containing the appropriately diluted drug. Six days following the initial administration of the test compound, the cell culture supernatant collected, treated with pronase and then used in a real-time quantitative TaqMan qPCR assay. The PCR-amplified HBV DNA was detected in real-time by monitoring increases in fluorescence signals that result from the exonucleolytic degradation of a quenched fluorescent probe molecule that hybridizes to the amplified HBV DNA. For each PCR amplification, a standard curve was simultaneously generated using dilutions of purified HBV DNA. Antiviral activity was calculated from the reduction in HBV DNA levels (IC50). CellTiter 96® AQueous One Solution Cell Proliferation Assay kit (Promega) was employed to measure cell viability which was used to calculate cytotoxicity (TC50). The therapeutic index (TI) was calculated as TC50/IC50.

[5] = system: Tat-mediated activation of the HIV-LTR promoter; experiment: TAT-mediated transactivation, HIV-LTR-Luc reporter; format: cell-based, HIV-1
Method: SupT1 cells were transfected with a HIV-LTR-Luc construct (LAI), +/−Tat (pcTAT, subtype B), along with a constitutively active renilla-luciferase construct (to normalize for transfection efficiency). Firefly and renilla activity were monitored (sequentially, same sample) 24 hours post transfection. DMSO was used as a negative control; and Compound 9 was added at 1, 0.1, and 0.001 μM. These reactions were done in singlet (pilot). TZM-bl cells are HeLa derived cells that contain CD4, CCR5, and an integrated HIV promoter (LTR) fused to firefly luciferase. Untransfected cells (LTR) or Tat-transfected cells (LTR+TAT) were incubated with Compound 9 at the indicated doses at the time of transfection. DMSO was used as a negative control. Luciferase activity was measured 20 hours post-transfection using a commercially-available luciferase substrate (Promega) and the results are shown in FIG. 8. […] Repeat results are illustrated in Tat-Experiment 2 graph.

[6] = system: Rev-dependent VLP production; experiment: Virus like particles (VLP) production in 293T cells, Gag(p24) ELISA; format: cell-based; settings: 293T cells, 1, 0.1 and 0.01
Excerpt: 293T Cells were transfected with a gag-pol-RRE construct. When Rev is present and/or functioning, Gag is produced, forms virus like particles (VLP), and VLP are secreted into the culture supernatant. VLP in the media are quantified using a quantitative Gag(p24) ELISA.

For `CC1(C)CC(=O)c2c(C(F)(F)F)nn(-c3ccc(C(N)=O)c(N[C@H]4CC[C@H](O)CC4)c3)c2C1` [Compound 9, 4-(6,6-Dimethyl-4-oxo-3-trifluoromethyl-4,5,6,7-tetrahydro-indazol-1-yl)-2-(trans-4-hydroxy-cyclohexylamino)-benzamide], which EC50 [1] is on record?
The EC50 was 10 nM.

What about the “Amount of p27 in the supernatant of the cultures” value (SIVmac251 virus) of the same molecule?
The value was “dose-dependent reduction”.

And the “Integration of HIV-1 viral DNA into host cell” value [2]?
Its value is “inhibit”.

What about the “Reduction of single cycle HIV” value ([2]; 500 nM, SupT1 cells infected 36 hours) of the same molecule?
The value was “at least 90%”.

What about the “Increase in GFP positive cells (HIV reactivation)” value (JLAT clones (A2; 9.2); JLAT (A2) model) of the same molecule?
The value was “about 2 fold”.

What about the “Inhibition of TNFα or PMA (phorbol ester) induced HIV-1 reactivation” value (JLAT clones (A2; 9.2); JLAT A2 and JLAT 9.2 cells) of the same molecule?
Its value is “does not inhibit”.

And the “Expression level of 2LTR” value ([3]; 10 nM, both time points)?
Its value is “expression levels similar to HIV Only”.

What about the “Expression level of 2LTR” value ([3]; 100 nM) of the same molecule?
Its value is “highest expression levels of 2LTR over all other samples”.

And the “Expression level of 2LTR” value ([3]; 1 μM)?
The value was “highest expression levels of 2LTR over all other samples”.

And the CC50 at 6 days [4]?
The CC50 at 6 days was 73 nM.

And the “Activity against hepatitis B virus (in words)” value (Hepatitis B Virus (HBV))?
Its value is “inactive”.

And the “Selectivity Index TI (TC50/IC50)” value (Hepatitis B Virus (HBV); HBV in HepG2 2.2.15)?
Its value is 0.12.

And the IC50 (Hepatitis B Virus (HBV); Hepatitis B virus, 144 h, HBV in HepG2 2.2.15, six days, read-out: Antiviral Activity IC50 (reduction in HBV DNA levels))?
Its IC50 is 600 nM.

And the IC90 (Hepatitis B Virus (HBV); Hepatitis B virus, HBV in HepG2 2.2.15)?
The IC90 was > 2000 nM.

What about the Tat-mediated transactivation [5] of the same molecule?
The Tat-mediated transactivation was “inhibit”.

And the “Inhibition of Rev-dependent VLP production” value [6]?
The value was “does not appear to robustly inhibit”.
